pIC50: −log10 of the molar value.
Experiments:
[1] = test system: H460 cells; experiment: Proliferation assay in H460 cells (2 hr exposure, AlamarBlue); type: cell-based, human; settings: Homo sapiens, NCI-H460, 2 hrs exposure, wash, 70 hrs growth, read-out: IC 50 in proliferation assay in H460 cells
Procedure, shortened: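 H460 cells seeded at 4×10^3/well, grown 24 h, then exposed to compound for 2 h at 37 °C. Drug was washed off and cells were regrown 70 h in fresh medium. Viable cells were read by AlamarBlue, and IC50 was taken as the concentration giving 50% growth inhibition.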

[2] = test system: Hep G2; experiment: TH2870 sensitivity in liver cancer cells; type: cell-based, human
[3] = test system: SNU-449; experiment: TH2870 sensitivity in liver cancer cells; type: cell-based, human; settings: AKR1C3 expression ++++
[4] = test system: SNU-475; experiment: TH2870 sensitivity in liver cancer cells; type: cell-based, human; settings: AKR1C3 expression ++++
[5] = test system: LIC-0903; experiment: TH2870 sensitivity in liver cancer cells; type: cell-based, human; settings: AKR1C3 expression ++++
[6] = test system: LIXC-011; experiment: TH2870 sensitivity in liver cancer cells; type: cell-based, human; settings: AKR1C3 expression ++++
[7] = test system: LIXC-002; experiment: TH2870 sensitivity in liver cancer cells; type: cell-based, human; settings: AKR1C3 expression +++
[8] = test system: HLE; experiment: TH2870 sensitivity in liver cancer cells; type: cell-based, human; settings: AKR1C3 expression ++
[9] = test system: Hep 3B2.1-7; experiment: TH2870 sensitivity in liver cancer cells; type: cell-based, human; settings: AKR1C3 expression /
[10] = test system: 22RV1; experiment: TH2870 sensitivity in prostate cancer cell lines; type: cell-based; settings: Homo sapiens
[11] = test system: LNCap; experiment: TH2870 sensitivity in prostate cancer cell lines; type: cell-based; settings: Homo sapiens
[12] = Example 4-C body weight change, A375 xenograft study; type: in vivo, female nude mice (nu/nu); settings: 20 mpk, qd × 5 × 2, ip
Procedure, shortened: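 Cells in 50% Matrigel were implanted subcutaneously in the flank, and mice (10/group) were randomized at 100-150 mm3. Compounds in 5% DMSO/D5W were dosed IP QD×5/wk ×2 cycles, IP once, IP weekly ×3 wk, or IV weekly ×3 wk. Body weight and tumour volume were measured twice weekly; TGI = (1−ΔT/ΔC)×100.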

[13] = test system: A549 NSCLC xenograft; experiment: Example 4-D antitumor efficacy, ectopic A549 NSCLC xenograft model; type: in vivo, female nude mice (nu/nu)
Excerpt: Specific pathogen-free homozygous female nude mice (nu/nu, Charles River Laboratories) were used. Mice were given food and water ad libitum and housed in microisolator cages. Four to six week old animals were identified by microchips (Locus Technology, Manchester, Md., USA) at the time of the experiments. All animal studies were approved by the Institutional Animal Care and Use Committee at Threshold Pharmaceuticals, Inc.
All cell lines were from the American Type Culture Collection (ATCC, Rockville, Md., USA).
(§1) Cells were mixed with Matrigel (50% with exception for 30% in the H460) and 0.2 ml per mouse were subcutaneously implanted to the flank area of the animals. When tumor size reached 100-150 250 mm3, mice were randomized into experimental or vehicle groups with 10 mice/group and treatment was started (Day 1). The tested compounds were formulated in 5% DMSO in D5W. The regimens employed in the examples include IP, QD×5/wk (5 days on, 2 days off) as one cycle, for a total of 2 cycles; IP, once; IP, weekly for total 3 weeks; and IV, weekly for 3 weeks. Tumor growth and body weight were measured twice a week. Tumor volume was calculated as (length×width2)/2. Drug efficacy was assessed as Tumor Growth Inhibition (TGI) and Tumor Growth Delay (TGD). TGI was defined as (1−ΔT/ΔC)×100, where ΔT/ΔC presented the ratio of the change in mean (or median, if variation within the group was relatively large) tumor volume of the treated group and of the control group. TGD was calculated as the extra days for the treated tumor to reach 500 mm3 or 1000 mm3 as compared to the control group. Animals were culled when individual tumor size reached over 2000 mm3 or mean tumor volume exceeded 1000 mm3 in the group. Data are expressed as the mean±SEM. One-way analysis of variance with Dunnett post comparison test (GraphPad Prism 4) or two-tailed student's t-test were used for analysis. A P level <0.05 was considered statistically significant.
(§2) The compounds were tested in another A549 model. The compounds were dosed as follows. Daily IP dosing: 5 doses then 2 days off then 5 more doses starting at 100 mm^3 tumors on day 1 (10 animals per group average tumor volume). The antitumor effects and the safety of administration are graphically illustrated below.

[14] = Example 4-D body weight change and lethal toxicity, A549 xenograft study; type: in vivo, female nude mice (nu/nu); settings: for Lethal Tox: 10 animals per group
Protocol: as §1, §2

[15] = Pharmacokinetics of TH2870 in CD-1 mice, single IV bolus and single IP dose; settings: mouse, in vivo
Protocol: The pharmacokinetics of TH2870 in CD-1 mice following a single intravenous bolus dose (5 mg/kg) and a single intraperitoneal dose (10 mg/kg) were determined.

[16] = in vivo; settings: mouse, ip, 20 mg/kg
Protocol: The pharmacokinetics of TH2870 were determined in Mouse/Nu-Foxn 1^nu NU/NU mice with A549 (non small cell lung), A375 (melanoma) and 786-O (renal cell) human tumor xenograft models following a single intraperitoneal dose of 20 mg/kg.

[17] = Homo sapiens, read-out: RelIC50

## CC(OP(=O)(N1CC1)N1CC1)c1ccc([N+](=O)[O-])c(Oc2cccc(C(=O)N(C)C)c2)c1 (stereo not shown) [Compound 2870]
[1]
  pIC50: 9.40
[2]; AKR1C3 expression ++++
  Max Inhibition %: 98.9%
[2]; Homo sapiens, HepG2, AKR1C3 expression ++++, read-out: RelIC50
  pIC50: 8.26
[3]
  Max Inhibition %: 99.6%
[3]; [17]
  pIC50: 7.40
[4]
  Max Inhibition %: 100.4%
[4]; [17]
  pIC50: 8.10
[5]
  Max Inhibition %: 96.3%
[5]; [17]
  pIC50: 7.09
[6]
  Max Inhibition %: 97.4%
[6]; [17]
  pIC50: 7.39
[7]
  Max Inhibition %: 99.1%
[7]; [17]
  pIC50: 7.25
[8]
  Max Inhibition %: 80.5%
[8]; [17]
  pIC50: 7.07
[9]
  Max Inhibition %: 8.1%
[9]; [17]
  pIC50: < 6.00
[10]
  pIC50: 8.72
[11]
  pIC50: 6.79
[12]
  Max. BW loss %: 0%
[13]; 20 mg/kg IP QD × 5/wk × 2 wks
  TGD 500: >85 days
  TGI: 95.0%
[13]; 40 mg/kg IV 2/wk × 2 wks
  TGD 500: >85 days
  TGI: 98.6%
[14]; 20 mg/kg IP QD × 5/wk × 2 wks
  Max. BW loss %: 0.3%
  Lethal Tox: 0
[14]; 40 mg/kg IV 2/wk × 2 wks
  Max. BW loss %: 2.0%
  Lethal Tox: 1
[15]; IP 10 mg/kg
  AUC: 725 ng·h/mL
  Cmax: 4020 ng/mL
  Tmax: 5 min
  half-life: 9 min
[15]; IV bolus 5 mg/kg
  AUC: 963 ng·h/mL
  Cmax: 6790 ng/mL
  Tmax: 2 min
  clearance: 86.5 mL/min/kg
  half-life: 6.56 min
[15]; IV bolus 5 mg/kg, read-out: Vss
  Vd: 0.668 L/kg
[16]; Nu-Foxn1nu NU/NU
  Kp: 0.0079 to 0.326
  Tmax: 5 min
[16]; Nu-Foxn 1nu NU/NU, AUC
  AUC: 1570 ng·h/mL
[16]; Nu-Foxn 1nu NU/NU, Cmax
  Cmax: 5010 ng/mL
[16]; Nu-Foxn 1nu NU/NU, Half-Life
  half-life: 11.3 min

— patent US10766914B2, “DNA alkylating agents” (OBI PHARMA, INC., priority 2015, dated 2020)
